According to patent publication US4950647A, “T cell immunopotentiator” (Nucleic Acid Research Institute, priority 1988, dated 1990):
Read-outs that look alike come from different tables or passages of the source.

What was measured:
[1] = test system: human lymphocytes (peripheral blood mononuclear cells); experiment: Mitogenic activity (3H-thymidine incorporation); format: cell-based
Experimental: (§1) Peripheral blood mononuclear cells were isolated from heparinized peripheral blood of normal healthy donors as described in Sharma, B. and S. Gupta, "Antigen-specific primary cytotoxic T lymphocyte response in acquired immune deficiency syndrome (AIDS) and AIDS related complex", Clin. Exp. Immunol., 62:296, 1985. Briefly, blood was diluted 1:1 with Hanks balanced salt solution (HBSS). Peripheral blood mononuclear cells were separated on a Ficoll-Hypaque gradient. The peripheral blood mononuclear cells recovered from the interface were washed three times with HBSS and resuspended in RPMI-1640 containing 100 U/ml penicillin, 100 μg/ml streptomycin 2mM L-glutamine (GIBCO, Grand Island, N.Y.), and 10% heat-inactivated pooled A serum (Irvine Scientific, Irvine, Calif.), hereafter referred as complete medium (CM).
The ability of 6-amino-(2-deoxy-α-D-erythro-pentofuranosyl)-imidazo[4,5,-C]pyridin- 4-one to activate lymphocytes was determined by culturing the cells with and without this compound. Peripheral blood mononuclear cells (1×10^5 /0.2 ml) were cultures in 96 well microtiter plates (Corning, N.Y.) for 72-96 hrs at 37° C. in 5% CO2 humid atmosphere and then for an additional 16 hr in the presence of 1 μCi/well [^3 H] thymidine (ICN Pharmaceuticals, Inc., Irvine, Calif.). Cells were harvested on glass fiber filter paper using a cell harvester (Skatron, Lier, Norway). The radioactivity was measured in a scintillation counter after suspending the dried filter in scintillation fluid.
To determine whether 6-amino-(2-deoxy-α-D-erythro-pentofuranosyl)-imidazo[4,5,-C]pyridin- 4-one directly activates lymphocytes to proliferate, peripheral blood mononuclear cells were cultured with or without this compound as described in the above methods section.

[2] = test system: lymphocytes (peripheral blood mononuclear cells); experiment: Pokeweed mitogen (PWM) induced lymphocyte proliferation; format: cell-based, human; set-up: 3H-thymidine incorporation: unit not given here
Experimental: as §1, with “(CM). […] T. Terasaki, "Effect of water soluble adjuvants on in vitro lymphocyte immunization", Cancer Res. 35:666, 1975. […] The culture were set up in quadruplicate and pulsed with [^3 H]-thymidine for 16 hr and the [^3 H] thymidine incorporation was determined.” for “(CM).”

[3] = test system: T lymphocytes (peripheral blood mononuclear cells); experiment: Cyclosporin A induced suppression of lymphocyte response to phytohemagglutinin / T cell mitogens, and its restoration; format: cell-based, human
Experimental: as §1
(§2) Cultures were pulsed for 16 hr and [^3 H]-thymidine incorporation was measured.
(§3) Peripheral blood mononuclear cells from normal donors were incubated with T cell mitogens in the presence and absence of this compound and then [^3 H-thymidine incorporation was measured.
Peripheral blood mononuclear cells were cultured with phytohemagglutinin in the presence of CsA (10 and 50 ng/0.2 ml) and 6-amino-(2-deoxy-α-D-erythro-pentofuranosyl)-imidazo[4,5,-C]pyridin- 4-one. Lymphocytes proliferation was determined by ^3 H-thymidine incorporation.

[4] = test system: T lymphocytes (peripheral blood mononuclear cells); experiment: Cyclosporin A induced suppression of lymphocyte response to Concanavalin A, and its restoration; format: cell-based, human; conditions: FIG. 4; Con A
Experimental: Briefly, blood was diluted 1:1 with Hanks balanced salt solution (HBSS). Peripheral blood mononuclear cells were separated on a Ficoll-Hypaque gradient.
as §2, §3
Lymphocytes proliferation was determined by ^3 H-thymidine incorporation.

`Nc1cc2c(ncn2[C@@H]2C[C@H](O)[C@@H](CO)O2)c(O)n1` [Test Compound, 6-amino-1-(2-deoxy-α-D-erythro-pentofuranosyl)imidazo[4,5-C]-pyridin-4-one] was tested, and the “increase in the proliferation of peripheral blood mononuclear cells” value ([1]; 0.006 mM to 0.4 mM, several donors) was “no significant increase”, the “stimulation of lymphocytes to proliferate” value ([1]; 1 mM) was “failed to stimulate lymphocytes to proliferate” and the “direct stimulation of lymphocytes to proliferate” value ([1]; by itself) was “unable to directly stimulate lymphocytes to proliferate”. For the same molecule, the 3H-thymidine incorporation ([1]; donor 1, 0.006 mM) was 212 ± 96 Counts per minute, the 3H-thymidine incorporation ([1]; donor 1, 0.025 mM) was 494 ± 267 Counts per minute and the 3H-thymidine incorporation ([1]; donor 1, 0.050 mM) was 306 ± 106 Counts per minute. The 3H-thymidine incorporation ([1]; donor 1, 0.2 mM) was 246 ± 99 Counts per minute, the 3H-thymidine incorporation ([1]; donor 1, 0.4 mM) was 320 ± 46 Counts per minute and the 3H-thymidine incorporation ([1]; donor 2, 0.006 mM) was 262 ± 68 Counts per minute. For the same molecule, the 3H-thymidine incorporation ([1]; donor 2, 0.025 mM) was 273 ± 122 Counts per minute, the 3H-thymidine incorporation ([1]; donor 2, 0.050 mM) was 257 ± 67 Counts per minute and the 3H-thymidine incorporation ([1]; donor 3, 0.006 mM) was 266 ± 42 Counts per minute. It also gave a 3H-thymidine incorporation ([1]; donor 3, 0.025 mM) of 252 ± 112 Counts per minute, a 3H-thymidine incorporation ([1]; donor 3, 0.050 mM) of 180 ± 37 Counts per minute and a 3H-thymidine incorporation ([1]; donor 4, 0.006 mM) of 246 ± 61 Counts per minute. For the same molecule, the 3H-thymidine incorporation ([1]; donor 4, 0.025 mM) was 237 ± 55 Counts per minute, the 3H-thymidine incorporation ([1]; donor 4, 0.050 mM) was 240 ± 35 Counts per minute and the 3H-thymidine incorporation ([1]; donor 5, 0.006 mM) was 238 ± 63 Counts per minute. The 3H-thymidine incorporation ([1]; donor 5, 0.025 mM) was 121 ± 55 Counts per minute, the 3H-thymidine incorporation ([1]; donor 5, 0.050 mM) was 841 ± 310 Counts per minute and the 3H-thymidine incorporation ([1]; donor 5, 0.2 mM) was 277 ± 51 Counts per minute. The 3H-thymidine incorporation ([1]; donor 5, 0.4 mM) was 165 ± 64 Counts per minute, the 3H-thymidine incorporation ([1]; donor 6, 0.006 mM) was 486 ± 51 Counts per minute and the 3H-thymidine incorporation ([1]; donor 6, 0.025 mM) was 508 ± 140 Counts per minute. For the same molecule, the 3H-thymidine incorporation ([1]; donor 6, 0.050 mM) was 650 ± 130 Counts per minute, the 3H-thymidine incorporation ([1]; donor 6, 0.2 mM) was 620 ± 322 Counts per minute and the 3H-thymidine incorporation ([1]; donor 6, 0.4 mM) was 395 ± 22 Counts per minute. For the same molecule, the 3H-thymidine incorporation ([1]; donor 7, 0.006 mM) was 1133 ± 257 Counts per minute, the 3H-thymidine incorporation ([1]; donor 7, 0.025 mM) was 1667 ± 254 Counts per minute and the 3H-thymidine incorporation ([1]; donor 7, 0.050 mM) was 772 ± 137 Counts per minute. The 3H-thymidine incorporation ([1]; donor 7, 0.2 mM) was 657 ± 137 Counts per minute, the 3H-thymidine incorporation ([1]; donor 7, 0.4 mM) was 702 ± 189 Counts per minute and the “maximum increase of Pokeweed mitogen induced proliferation” value [2] was 18%. It also gave an activation at 6 µM ([2]; Homo sapiens, Lymphocyte, donor 1, control 53384, 0.006 mM, read-out: % Increase (+)) of 18%, an activation at 25 µM ([2]; Homo sapiens, Lymphocyte, donor 1, control 53384, 0.025 mM, read-out: % Increase (+)) of 8% and an activation at 6 µM ([2]; Homo sapiens, Lymphocyte, donor 1, second control 58731, 0.006 mM, read-out: % Increase (+)) of 4%. For the same molecule, the activation at 6 µM ([2]; Homo sapiens, Lymphocyte, donor 4, 0.006 mM, read-out: % Increase (+)) was 4%, the inhibition at 50 µM ([2]; Homo sapiens, PBMC, donor 1, control 53384, 0.05 mM, read-out: % Decrease (-)) was 14% and the inhibition at 25 µM ([2]; Homo sapiens, PBMC, donor 1, second control 58731, 0.025 mM, read-out: % Decrease (-)) was 1%. It also gave an inhibition at 50 µM ([2]; Homo sapiens, PBMC, donor 1, second control 58731, 0.05 mM, read-out: % Decrease (-)) of 7%, an inhibition at 25 µM ([2]; Homo sapiens, PBMC, donor 2, 0.025 mM, read-out: % Decrease (-)) of 19% and an inhibition at 50 µM ([2]; Homo sapiens, PBMC, donor 2, 0.05 mM, read-out: % Decrease (-)) of 19%. For the same molecule, the inhibition at 125 µM ([2]; Homo sapiens, PBMC, donor 2, 0.125 mM, read-out: % Decrease (-)) was 16%, the inhibition at 6 µM ([2]; Homo sapiens, PBMC, donor 3, 0.006 mM, read-out: % Decrease (-)) was 4% and the inhibition at 25 µM ([2]; Homo sapiens, PBMC, donor 3, 0.025 mM, read-out: % Decrease (-)) was 22%. It also gave an inhibition at 200 µM ([2]; Homo sapiens, PBMC, donor 3, 0.2 mM, read-out: % Decrease (-)) of 27%, an inhibition at 25 µM ([2]; Homo sapiens, PBMC, donor 4, 0.025 mM, read-out: % Decrease (-)) of 11% and an inhibition at 50 µM ([2]; Homo sapiens, PBMC, donor 4, 0.05 mM, read-out: % Decrease (-)) of 18%. The 3H-thymidine incorporation ([2]; donor 1, control 53384, 0.006 mM) was 62772 ± 2781, the 3H-thymidine incorporation ([2]; donor 1, control 53384, 0.025 mM) was 56449 ± 2090 and the 3H-thymidine incorporation ([2]; donor 1, control 53384, 0.05 mM) was 45844 ± 1152. For the same molecule, the 3H-thymidine incorporation ([2]; donor 1, second control 58731, 0.006 mM) was 61100 ± 4701, the 3H-thymidine incorporation ([2]; donor 1, second control 58731, 0.025 mM) was 57852 ± 3166 and the 3H-thymidine incorporation ([2]; donor 1, second control 58731, 0.05 mM) was 54840 ± 942. For the same molecule, the 3H-thymidine incorporation ([2]; donor 2, 0.025 mM) was 67565 ± 5857, the 3H-thymidine incorporation ([2]; donor 2, 0.05 mM) was 67429 ± 3657 and the 3H-thymidine incorporation ([2]; donor 2, 0.125 mM) was 70197 ± 5940. The 3H-thymidine incorporation ([2]; donor 3, 0.006 mM) was 40425 ± 1158, the 3H-thymidine incorporation ([2]; donor 3, 0.025 mM) was 32818 ± 4806 and the 3H-thymidine incorporation ([2]; donor 3, 0.2 mM) was 30453 ± 2974. For the same molecule, the 3H-thymidine incorporation ([2]; donor 4, 0.006 mM) was 39090 ± 4853, the 3H-thymidine incorporation ([2]; donor 4, 0.025 mM) was 33122 ± 4539 and the 3H-thymidine incorporation ([2]; donor 4, 0.05 mM) was 30500 ± 2132. The “suppressive effect on Pokeweed mitogen induced proliferation” value ([2]; especially at relatively higher concentrations) was “generally a suppressive effect”, the “immunopotentiating effect on Pokeweed mitogen induced proliferation” value ([2]; listed as 6-Amino-(2-deoxy-α-D-erythro-pentofuranosyl)-imidazo[4,5,-C]pyridin-4-one) was “did not have any significant immunopotentiating effect” and the “T cell proliferative response after addition of compound” value ([3]; FIG. 3, PHA + Cyclosporin A + compound) was 43,000 CPM. The “reversal of cyclosporin mediated suppression (partial)” value ([3]; magnitude of cyclosporin mediated suppression higher, T cell mitogens) was “over 50%”, the “restoration of lymphocyte proliferation” value ([3]; suppression about half of the total response, mitogen not stated) was “completely restored the lymphocyte proliferation” and the “reconstitution of immune response” value ([3]; suppression low, lower concentration of cyclosporin, T cell mitogens) was “essentially complete”. The “reversal of Cyclosporin A mediated suppression” value [4] was “completely reversed”.
